Reference: US4351948A, “Imidazole hydrazone derivatives” (priority 1980, dated 1982)
Counter-ions that a name gives are not always drawn. Like-named read-outs stand apart in the source and are kept apart here.

Key:
Assay in all cases: Antianaerobic activity, MIC by standard broth dilution method (Table II)
Assay type in all cases: cell-based
[1] = tested on: B. uniformis ATCC 8492; settings: Bacteroides uniformis, ATCC8492, 24 h, read-out: Minimal Inhibitory Concentration (MIC)
Experimental: (§1) The activity of the compounds identified in the Table II below was tested for antianaerobic activity against one strain of Bacteroides fragilis, one strain of Bacteroides uniformis, one strain of Clostridium sporogenes and one strain of Trichomonas vaginalis as the test organism. The methods used involved determining the minimum inhibitory concentration by the standard broth dilution method. […] For convenience the compounds are referred to by an internal reference number (an HC number) and this is correlated with the number of the Example wherein its production is described.

[2] = tested on: T. vaginalis ATCC 30001; settings: Trichomonas vaginalis, ATCC30001, 24 h, read-out: Minimal Inhibitory Concentration (MIC)
Experimental: as §1

[3] = tested on: B. fragilis ATCC 23745; settings: Bacteroides fragilis, ATCC23745, 24 h, read-out: Minimal Inhibitory Concentration (MIC)
Experimental: as §1

[4] = tested on: C. sporogenes ATCC 19404; settings: Clostridium sporogenes, ATCC19404, 24 h
Experimental: The activity of the compounds identified in the Table II below was tested for antianaerobic activity against one strain of Bacteroides fragilis, one strain of Bacteroides uniformis, one strain of Clostridium sporogenes and one strain of Trichomonas vaginalis as the test organism. The methods used involved determining the minimum inhibitory concentration by the standard broth dilution method. The values for metronidazole (2-methyl-5-nitro-1H-imidazole-1-ethanol) are given above for reference purposes. For convenience the compounds are referred to by an internal reference number (an HC number) and this is correlated with the number of the Example wherein its production is described.

[5] = Test 1, read-out: Minimal Inhibitory Concentration (MIC)
[6] = Test 2, read-out: Minimal Inhibitory Concentration (MIC)
[7] = Test 3, read-out: Minimal Inhibitory Concentration (MIC)

| Compound | MIC ([1]; Test 1) | MIC ([1]; Test 2) | MIC ([1]; Test 3) | MIC ([2]; Test 1) | MIC ([2]; Test 2) | MIC ([2]; Test 3) | MIC ([3]; Test 1) | MIC ([3]; Test 2) | MIC ([3]; Test 3) | MIC [4, 5] | MIC [4, 6] | MIC [4, 7] | MIC ([4]; read-out: Minimal Inhibitory Concentration (MIC), Test 1) | MIC ([4]; read-out: Minimal Inhibitory Concentration (MIC), Test 3) |
| --- | --- | --- | --- | --- | --- | --- | --- | --- | --- | --- | --- | --- | --- | --- |
| Cl.Clc1ccc(NN=C(Cn2ccnc2)c2ccccc2)cc1Cl [HC-442, 1-phenyl-2-(1H-imidazol-1-yl)ethanone, 3,4-dichlorophenylhydrazone, hydrochloride] | 2.5 µg/mL | 5 µg/mL | 5 µg/mL | 50 µg/mL | 75 µg/mL | 100 µg/mL | 2.5 µg/mL | 5 µg/mL | 5 µg/mL | 5 µg/mL | 2.5 µg/mL | 2.5 µg/mL | – | – |
| Cl.FC(F)(F)c1ccc(C(Cn2ccnc2)=NNc2c(Cl)cc(Cl)cc2Cl)cc1 [HC-482, 1-(4-trifluoromethylphenyl)-2-(1H-imidazol-1-yl)ethanone, 2,4,6-trichlorophenylhydrazone, hydrochloride] | 2.5 µg/mL | 2.5 µg/mL | 2.5 µg/mL | 25 µg/mL | 25 µg/mL | 25 µg/mL | 5 µg/mL | 5 µg/mL | 5 µg/mL | 5 µg/mL | 5 µg/mL | 5 µg/mL | – | – |
| Clc1ccc(NN=C(Cn2ccnc2)c2ccc(Cl)s2)c(Cl)c1 [HC-363, 1-(5-chlorothien-2-yl)-2-(1H-imidazol-1-yl) ethanone, 2,4-dichlorophenylhydrazone, hydrochloride] | 2.5 µg/mL | 2.5 µg/mL | 2.5 µg/mL | 50 µg/mL | 50 µg/mL | 50 µg/mL | 1 µg/mL | 2.5 µg/mL | 2.5 µg/mL | 2.5 µg/mL | 2.5 µg/mL | 7.5 µg/mL | – | – |
| COc1ccc(C(Cn2ccnc2)=NNc2cc(Cl)ccc2Cl)cc1.Cl [HC-464, 1-(4-methoxyphenyl)-2-(1H-imidazol-1-yl)ethanone, 2,5-dichlorophenylhydrazone, hydrochloride] | 2.5 µg/mL | 2.5 µg/mL | 2.5 µg/mL | 10 µg/mL | 50 µg/mL | 50 µg/mL | 2.5 µg/mL | 5 µg/mL | 5 µg/mL | 2.5 µg/mL | 5 µg/mL | 2.5 µg/mL | – | – |
| Cl.Clc1cccc(Cl)c1NN=C(Cn1ccnc1)c1ccc(Br)cc1 [HC-364, 1-(4-bromophenyl)-2-(1H-imidazol-1-yl)ethanone, 2,6-dichlorophenylhydrazone, hydrochloride] | 10 µg/mL | 2.5 µg/mL | 2.5 µg/mL | 50 µg/mL | 50 µg/mL | 50 µg/mL | 10 µg/mL | 2.5 µg/mL | 5 µg/mL | 10 µg/mL | 5 µg/mL | 25 µg/mL | – | – |
| Cl.Clc1ccc(C(Cn2ccnc2)=NNc2ccccc2Br)cc1 [HC-486, 1-(4-chlorophenyl)-2-(1H-imidazol-1-yl)ethanone, 2-bromophenylhydrazone, hydrochloride] | 2.5 µg/mL | 2.5 µg/mL | 5 µg/mL | 50 µg/mL | 50 µg/mL | 75 µg/mL | 5 µg/mL | 5 µg/mL | 5 µg/mL | 2.5 µg/mL | 5 µg/mL | 5 µg/mL | – | – |
| Cl.Fc1ccc(C(Cn2ccnc2)=NNc2ccc(Cl)c(Cl)c2)cc1 [HC-506, 1-(4-fluorophenyl)-2-(1H-imidazol-1-yl)ethanone, 3,4-dichlorophenylhydrazone, hydrochloride] | 5 µg/mL | 2.5 µg/mL | – | – | – | – | 5 µg/mL | 5 µg/mL | – | > 50 µg/mL | > 50 µg/mL | – | – | – |
| Cl.Clc1ccc(Cl)c(NN=C(Cn2ccnc2)c2ccccc2Cl)c1 [HC-469, 1-(2-chlorophenyl)-2-(1H-imidazol-1-yl)ethanone, 2,5-dichlorophenylhydrazone, hydrochloride] | 5 µg/mL | 1 µg/mL | 2.5 µg/mL | 50 µg/mL | 75 µg/mL | 100 µg/mL | 5 µg/mL | 5 µg/mL | 10 µg/mL | 2.5 µg/mL | 7.5 µg/mL | 1 µg/mL | – | – |
| Cl.FC(F)(F)c1ccc(C(Cn2ccnc2)=NNc2c(Cl)cccc2Cl)cc1 [HC-438, 1-(4-trifluoromethylphenyl)-2-(1H-imidazol-1-yl)ethanone, 2,6-dichlorophenylhydrazone, hydrochloride] | 5 µg/mL | 5 µg/mL | 5 µg/mL | 25 µg/mL | 50 µg/mL | 75 µg/mL | 5 µg/mL | 7.5 µg/mL | 5 µg/mL | 2.5 µg/mL | 7.5 µg/mL | 2.5 µg/mL | – | – |
| Cl.Clc1ccc(C(Cn2ccnc2)=NNc2c(Cl)cc(Cl)cc2Cl)c(Cl)c1 [HC-420, 1-(2,4-dichlorophenyl)-2-(1H-imidazol-1-yl)ethanone, 2,4,6-trichlorophenylhydrazone, hydrochloride] | 10 µg/mL | 1 µg/mL | 2.5 µg/mL | 50 µg/mL | 50 µg/mL | 50 µg/mL | 10 µg/mL | 2.5 µg/mL | 2.5 µg/mL | 10 µg/mL | 2.5 µg/mL | 2.5 µg/mL | – | – |
| CC(C(=NNc1c(Cl)cccc1Cl)c1ccc(Cl)cc1)n1ccnc1 (stereo not drawn) [HC-403, 1-(4-chlorophenyl)-2-(1H-imidazol-1-yl)propanone, 2,6-dichlorophenylhydrazone, hydrochloride] | 2.5 µg/mL | 2.5 µg/mL | 2.5 µg/mL | < 50 µg/mL | 7.5 µg/mL | < 50 µg/mL | 5 µg/mL | 2.5 µg/mL | 5 µg/mL | – | 7.5 µg/mL | – | 1 µg/mL | 50 µg/mL |
| Cl.Clc1cccc(Cl)c1NN=C(Cn1ccnc1)c1ccc(Br)s1 [HC-466, 1-(5-bromothien-2-yl)-2-(1H-imidazol-1-yl)ethanone, 2,6-dichlorophenylhydrazone, hydrochloride] | 1 µg/mL | 5 µg/mL | 5 µg/mL | 50 µg/mL | 50 µg/mL | 50 µg/mL | 1 µg/mL | 5 µg/mL | 5 µg/mL | 5 µg/mL | 5 µg/mL | 5 µg/mL | – | – |
| CC(C(=NNc1ccc(Cl)cc1Cl)c1ccc(Cl)cc1)n1ccnc1 (stereo not drawn) [HC-433, 1(4-chlorophenyl)-2-(1H-imidazol-1-yl) propanone, 2,4-dichlorophenylhydrazone, hydrochloride] | 0.5 µg/mL | 5 µg/mL | 2.5 µg/mL | 75 µg/mL | 50 µg/mL | 50 µg/mL | 1 µg/mL | 2.5 µg/mL | 2.5 µg/mL | 1 µg/mL | 2.5 µg/mL | 2.5 µg/mL | – | – |
| Cl.Clc1cc(Cl)c(NN=C(Cn2ccnc2)c2ccccc2Cl)c(Cl)c1 [HC-523, 1-(2-chlorophenyl)-2-(1H-imidazol-1-yl)ethanone, 2,4,6-trichlorophenylhydrazone, hydrochloride] | 5 µg/mL | 2.5 µg/mL | 5 µg/mL | 50 µg/mL | 50 µg/mL | 50 µg/mL | 7.5 µg/mL | 5 µg/mL | 7.5 µg/mL | 2.5 µg/mL | 2.5 µg/mL | 5 µg/mL | – | – |
| Cl.Fc1ccccc1C(Cn1ccnc1)=NNc1cccc(Cl)c1Cl [HC-507, 1-(2-fluorophenyl)-2-(1H-imidazol-1-yl)ethanone, 2,3-dichlorophenylhydrazone, hydrochloride] | 5 µg/mL | 2.5 µg/mL | – | – | – | – | 2.5 µg/mL | 5 µg/mL | – | 2.5 µg/mL | 2.5 µg/mL | – | – | – |
